# pIC50: −log10 of the molar value. Where two headings read alike, the source gives them in different places.
# What was measured:
# 17-Beta HSD II Enzyme = biological target: T1, 17-Beta HSD II Enzyme (Homo sapiens, UniProt P37059); assay: Primary assay: inhibition of 17-Beta HSD II enzyme (estradiol/NAD, PMS:MTS colorimetric readout at 490 nm); format: biochemical; conditions: Table 7, baculovirus-expressed recombinant HSD II, estradiol substrate
# T1 construct: made in house; host or cells: insect cells (baculovirus)
# T1 sequence (P37059 1-387): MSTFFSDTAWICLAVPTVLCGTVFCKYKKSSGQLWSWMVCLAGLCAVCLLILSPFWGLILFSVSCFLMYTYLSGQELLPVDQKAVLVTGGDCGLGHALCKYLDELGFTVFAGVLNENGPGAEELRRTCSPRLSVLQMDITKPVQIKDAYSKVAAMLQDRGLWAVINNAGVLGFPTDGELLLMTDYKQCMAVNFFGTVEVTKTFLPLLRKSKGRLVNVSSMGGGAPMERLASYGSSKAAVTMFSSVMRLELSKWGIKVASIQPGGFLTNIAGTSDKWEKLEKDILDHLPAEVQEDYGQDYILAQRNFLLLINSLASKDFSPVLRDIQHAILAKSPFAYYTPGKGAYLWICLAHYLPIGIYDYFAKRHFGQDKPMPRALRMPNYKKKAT
# Experimental: HSD II protein purification: The method for purification of baculovirus-expressed HSD II was standardized as follows. The insect cell pellet containing recombinant HSD II was lysed in 2.5 volumes of lysis buffer (40 mM Tris, pH 7.5, 1 mM EDTA, 2 mM DTT, 10 uM NAD) containing 500 uM AEBSF, 10 ug/ml aprotinin, 1 uM pepstatin A, and 100 uM leupeptin. The pellet was nutated for 30 min in this buffer. Subsequently, the pellet was homogenized with 15 strokes using a glass and teflon potter. The volume was doubled with a 2× sucrose/NaCl solution (500 mM sucrose, 300 mM NaCl in lysis buffer). After centrifugation at 10,000×g for 30 min, the supernatant was decanted and stored at −20° C. The pellet was resuspended in 2.5 volumes of lysis buffer containing 250 mM sucrose and 150 mM NaCl. Homogenization was repeated (15 strokes) and the suspension was centrifuged again and the decanted supernatant was stored at −20° C. The pellet was resuspended with 2 times the original pellet volume in lysis buffer containing 150 mM NaCl and 1% Triton X-100. The suspension was nutated for 20 min and then homogenized with 5 strokes. Subsequently, the suspension was centrifuged at 30,000×g for 1 h and supernatant was decanted and poured into a chromatographic column. Sephadex G-25 (fine) was added in small amounts, allowing approximately 15 min after each addition for complete swelling. Sephadex addition was continued until all liquid was absorbed. The protein was eluted with 1 void volume of lysis buffer and eluate monitored at 280 nm optical density. The chromatographic procedure was repeated and an equal volume of glycerol was added to the final eluate.
# Primary assay: After titration, the HSD II prep, generated with the standard protocol, was diluted to the appropriate concentration (generally 1/15 dilution). 55 μl of assay buffer (50 mM Hepes, pH 8.0) was added to all wells of a 96 well plate. 5 μl of 5% DMSO were added to wells A1-C1, A2-C2, F1-H1, and F2-H2. A 10 μl aliquot of a 10 mM solution in DMSO of each compound was diluted in 190 μl of assay buffer. The plate with these compound dilutions was then mixed for 15 min on a shaker and a 5 μl aliquot from each well was added to the […]. This was followed by 10 μl of HSD II enzyme ( 1/15 dilution)/estradiol mix in assay buffer containing 1% Triton X-100. The estradiol […] from a 20 mM estradiol DMSO stock solution, which was diluted 1/20 (50 μl/ml) in 50 mM Hepes buffer containing 1% Triton X-100. All wells, except F1-H1 and F2-H2, also received 10 μl of 25 mg/ml NAD (SIGMA) in 100 mM Hepes, pH 9. The blank wells F1-H1 and F2-H2 received 10 μl of NAD buffer. 20 μl of PMS:MTS solution (100 μl PMS into 1800 μl MTS, Promega) was added to all wells. The plate was covered with aluminum foil and incubated at room temperature for 1.5 h. The plate was analyzed at 490 nm on a Hewlett Pachard 8453 spectrophotometer and results were calculated.
# [1] = read-out: IC50 values ≧2 μM and <10 μM
melting point,pIC50 (17-Beta HSD II Enzyme; [1]),pIC50 (17-Beta HSD II Enzyme),SMILES
220 °C,–,> 6.30,COc1ccccc1C1CC(=O)N(C)C1C(O)c1ccc(S(=O)(=O)c2ccc(Cl)cc2)s1 (stereo not drawn) [Example 92]
193 to 195 °C,–,> 6.30,CN1C(=O)CC(c2ccccc2)C1C(O)c1ccc(Cl)c(Cl)c1 (stereo not drawn) [Example 99]
187 °C,5.00 to 5.70,–,Cc1ccc(-c2ccc(C(O)C3C(c4ccccc4)CC(=O)N3C)o2)cc1 (stereo not drawn) [Example 115]
184 °C,5.00 to 5.70,–,CN1C(=O)CC(c2ccccc2)C1C(O)c1ccc(-c2ccccc2)o1 (stereo not drawn) [Example 117]
157 °C,5.00 to 5.70,–,COc1cccc(-c2ccc(C(O)C3C(c4ccccc4)CC(=O)N3C)o2)c1 (stereo not drawn) [Example 120]
180 °C,5.00 to 5.70,–,CN1C(=O)CC(c2ccccc2)C1C(O)c1ccc(-c2cccc(F)c2)o1 (stereo not drawn) [Example 122]
100 °C,5.00 to 5.70,–,CN1C(=O)CC(c2ccccc2)C1C(O)c1ccc(-c2cccc([N+](=O)[O-])c2)o1 (stereo not drawn) [Example 123]
154 to 156 °C,–,> 6.30,CN1C(=O)CC(c2ccccc2)C1C(O)C#Cc1ccc(F)cc1 (stereo not drawn) [Example 124]
189 °C,5.00 to 5.70,–,CN1C(=O)CC(c2ccccc2)C1C(O)Cc1nc(-c2ccccc2)cs1 (stereo not drawn) [Example 138]
142 to 144 °C,5.00 to 5.70,–,CCO[C@H](c1cccs1)[C@H]1[C@@H](c2ccccc2)CC(=O)N1C [Example 139]
129 to 130 °C,5.00 to 5.70,–,CN1C(=O)C[C@H](c2ccccc2)[C@@H]1[C@H](OCc1ccccc1)c1cccs1 [Example 140]
76 to 78 °C,5.00 to 5.70,–,CN1C(=O)C[C@H](c2ccccc2)[C@@H]1[C@H](OCCCc1ccccc1)c1cccs1 [Example 141]
95 to 96 °C,5.00 to 5.70,–,CO[C@H](c1cccc(Cl)c1)[C@H]1[C@@H](c2ccccc2)CC(=O)N1C [Example 142]
216 °C (dec.),–,> 6.30,CN1C(=O)C[C@H](c2ccccc2)[C@@H]1[C@H](O)c1ccc(-c2ccccc2)s1 [Example 145]
212 °C,–,> 6.30,CN1C(=O)C[C@H](c2ccccc2F)[C@@H]1[C@H](O)c1cccs1 [Example 150]
195 to 197 °C,–,> 6.30,CN1C(=O)C[C@H](c2ccccc2F)[C@@H]1[C@H](O)c1ccc(-c2cccnc2)s1 [Example 151]
213 to 215 °C,–,> 6.30,CN1C(=O)C[C@H](c2ccccc2F)[C@@H]1[C@H](O)c1ccc(-c2ccccn2)s1 [Example 153]
184 to 185 °C,–,> 6.30,CN1C(=O)C[C@H](c2ccccc2F)[C@@H]1[C@H](O)c1cccc(Cl)c1 [Example 154]
200 to 202 °C,–,> 6.30,CN1C(=O)C[C@H](c2ccccc2F)[C@@H]1[C@H](O)c1ccc(-c2cccs2)s1 [Example 155]

# Second part, the compound before the results:
SMILES,melting point,pIC50 (17-Beta HSD II Enzyme; [1]),pIC50 (17-Beta HSD II Enzyme)
"CN1C(=O)C[C@H](c2ccccc2)[C@@H]1[C@H](O)Cc1cccc(Cl)c1 (relative stereo) [Example 9, (±)-(4R*,5R*)-5-[(1R*)-2-(3-chlorophenyl)-1-hydroxyethyl]-1-methyl-4-phenylpyrrolidin-2-one]",50 to 52 °C,5.00 to 5.70,–
"CO[C@H](c1cccs1)[C@H]1[C@@H](c2ccccc2)CC(=O)N1C (relative stereo) [Example 12, (±)-(4R*,5R*)-5-((1S*)-methoxy-2-thienylmethyl)-1-methyl-4-phenylpyrrolidin-2-one]",101 to 102 °C,5.00 to 5.70,–
"CN1C(=O)C[C@H](c2ccc(N)cc2)[C@@H]1[C@H](O)c1ccc(-c2ccccc2)s1 (relative stereo) [Example 17, (±)-(4R*,5R*)-5-[(1S*)-hydroxy(5-phenyl(2-thienyl))methyl]-4-(4-aminophenyl)-1-methylpyrrolidin-2-one]",221 to 222 °C,–,> 6.30
"C#Cc1ccc([C@@H](O)[C@H]2[C@@H](c3ccccc3)CC(=O)N2C)s1 (relative stereo) [Example 23, (±)-(4R*,5R*)-5-[(1S*)(5-ethynyl(2-thienyl))hydroxymethyl]-1-methyl-4-phenylpyrrolidin-2-one]",187 °C,–,> 6.30
"CN1C(=O)C[C@H](c2ccccc2)[C@@H]1[C@H](O)c1ccc(-c2ccc[n+]([O-])c2)s1 [Example 26, (4R,5R)-5-{(S)-hydroxy[5-(1-oxido-3-pyridinyl)-2-thienyl]methyl}-1-methyl-4-phenyl 2-pyrrolidinone]",138 to 140 °C,–,> 6.30
CN1C(=O)CC(c2ccccc2)C1C(O)c1ccc(-c2ccc(C(F)(F)F)cc2)s1 (stereo not drawn) [Example 32],206 °C,5.00 to 5.70,–
CN1C(=O)CC(c2ccccc2)C1C(O)c1ccc(S(=O)(=O)N2CCOCC2)s1 (stereo not drawn) [Example 36],214 to 218 °C,–,> 6.30
CN1C(=O)CC(c2ccccc2)C1C(O)c1ccc(-c2ccc(-c3ccccc3)c(F)c2)s1 (stereo not drawn) [Example 47],170 °C,5.00 to 5.70,–
CN1C(=O)CC(c2ccccc2)C1C(O)c1ccc(-c2ccccn2)s1 (stereo not drawn) [Example 50],234 °C (dec.),–,> 6.30
CN1C(=O)CC(c2ccccc2)C1C(O)c1ccc(-c2ccc(O)cc2)s1 (stereo not drawn) [Example 52],184 to 186 °C (dec.),–,> 6.30
CN1C(=O)CC(c2ccccc2)C1C(O)c1ccc(CCc2ccc(F)cc2)s1 (stereo not drawn) [Example 57],123 to 125 °C,–,> 6.30
CN1C(=O)CC(c2ccccc2)C1C(O)c1ccc(Sc2ccccc2)s1 (stereo not drawn) [Example 66],172 °C,–,> 6.30
CN1C(=O)CC(c2ccccc2)C1C(O)c1ccc(-c2cccc(N)c2)s1 (stereo not drawn) [Example 67],190 °C,–,> 6.30
CN1C(=O)CC(c2ccccc2)C1C(O)c1ccc(-c2ccc(C(=O)O)cc2)s1 (stereo not drawn) [Example 68],232 °C (dec.),–,> 6.30
CN1C(=O)CC(c2ccccc2)C1C(O)c1ccc(S(=O)(=O)c2ccccc2)s1 (stereo not drawn) [Example 70],247 °C,–,> 6.30
CN(C)c1cccc(-c2ccc(C(O)C3C(c4ccccc4)CC(=O)N3C)s2)c1 (stereo not drawn) [Example 74],193 °C,–,> 6.30
CN1C(=O)CC(c2ccccc2)C1C(O)c1ccc(S(=O)(=O)c2ccc(F)cc2)s1 (stereo not drawn) [Example 76],192 °C,–,> 6.30
CN1C(=O)CC(c2ccccc2)C1C(O)c1ccc(-c2ccc(C#N)cc2)s1 (stereo not drawn) [Example 80],146 °C,–,> 6.30
CN1C(=O)CC(c2ccccc2F)C1C(O)c1ccc(-c2ccc(F)cc2)s1 (stereo not drawn) [Example 84],178 °C,–,> 6.30
COc1cccc(C2CC(=O)N(C)C2C(O)c2ccc(-c3ccc(F)cc3)s2)c1 (stereo not drawn) [Example 87],172 °C,5.00 to 5.70,–

# From patent US6784167B2, “17-beta-hydroxysteroid dehydrogenase-II inhibitors” (Bayer Pharmaceuticals Corporation, priority 2000, dated 2004)
